# Assay results reported in patent publication US11154569B2, “Ruthenium μ-nitrido complexes and their use as calcium uptake inhibitors” (CORNELL UNIVERSITY, priority 2018, dated 2021).
# What was measured:
# HEK293 cells = assay: MTT cytotoxicity assay; assay type: cell-based, human
# Experimental: HEK293 (human embryonic kidney cells were obtained from American Type Culture Collection (ATCC, Washington D.C.) and cultured as adherent monolayers in a humidified 5% CO2 atmosphere at 37° C. in Minimum Essential Media supplemented with 10% fetal bovine serum (FBS) and 100 U/mL penicillin/streptomycin. HeLa cells were cultured in Dulbecco's Modified Eagle's Medium (DMEM) supplemented with 10% FBS and 100 U/mL penicillin/streptomycin. Cells were checked for contamination monthly using the PlasmoTest™ mycoplasma detection kit. Ventricular cardiomyocytes were isolated from neonatal rats (NRVMs) as previously described (H. M. Piper et al., Piper H. M. (eds), Cell Culture Techniques in Heart and Vessel Research, Springer Verlag: Berlin, 1990). The isolated myocytes were cultured in Ham's F-10 supplemented with 5%/o fetal bovine serum (FBS) and penicillin/streptomycin (100 U/ml) at 37° C. in a 95% air/5% CO2 humidified atmosphere for four days
# Cells were seeded at 4000 cells/well in 100 μL/well in a 96-well plate and incubated for 24 hours. The media was removed and replaced with 200 μL of growth media containing varying concentrations of the complex. After 72 hours of incubation, the media was replaced with MEM containing 1 mg/mL of (4,5-dimethylthiazol-2-yl)-2,5-diepheyltetrazolium bromide (MTT). After four hours incubation, the media was removed and the purple formazan crystals were solubilized using 100 μL of a 8/1 DMSO/glycine buffer (pH 10) mixture. The absorbance at 570 nm was measured using a plate reader.
# With the new nitrido-bridged ruthenium compounds C-2 and C-3 prepared, MCU-inhibitory properties of these compounds were evaluated and their activities compared to C-1, the oxo-bridged Ru360 analogue of the conventional art (S. R. Nathan et al., Inorg. Chem. 2017, 56, 3123-3126 and S. R. Nathan et al., J. Vis. Exp. 2017, 56527). The cytotoxicity of the complexes in HEK293 cells was first measured using the colorimetric thiazolyl blue tetrazolium bromide (MTT) assay, as well known in the art. […]
# [1] = target: T1, mitochondrial calcium uniporter (MCU) (Homo sapiens, UniProt Q8NE86); assay: MCU-mediated Ca2+ uptake and ΔΨm in permeabilized HEK293T cells; assay type: cell-based; design: endogenous in cells; host or cells: HEK293T (digitonin-permeabilized); details: for MCU mediated mCa2+ uptake / transient ΔΨm loss (JC-1): 5 μM compound, 20 μM Ca2+ bolus; for MCU mediated mCa2+ uptake: digitonin permeabilized HEK293T cells; for transient ΔΨm loss (JC-1): permeabilized HEK293T cells
# T1 sequence (Q8NE86 51-351): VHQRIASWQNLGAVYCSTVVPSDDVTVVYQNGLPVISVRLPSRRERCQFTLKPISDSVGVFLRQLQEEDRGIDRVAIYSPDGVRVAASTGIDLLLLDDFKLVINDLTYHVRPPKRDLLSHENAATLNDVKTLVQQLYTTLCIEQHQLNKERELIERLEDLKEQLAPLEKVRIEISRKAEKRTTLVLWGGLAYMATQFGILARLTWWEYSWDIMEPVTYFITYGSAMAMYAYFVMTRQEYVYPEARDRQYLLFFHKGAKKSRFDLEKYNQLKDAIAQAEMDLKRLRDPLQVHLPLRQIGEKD
# T1 sequence (Q9H4I9 48-107 partner limits assumed): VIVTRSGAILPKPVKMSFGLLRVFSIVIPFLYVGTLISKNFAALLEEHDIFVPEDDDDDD
# Experimental: An equal number of IHEK293T (6×10^6 cells) were washed in Ca^2+ free PBS, pH 7.4, resuspended and permeabilized with 40 μg/ml digitonin in 1.5 ml of intracellular medium (ICM) composed of 120 mM KCl, 10 mM NaCl, 1 mM K—H2PO4, 20 mM HE PES-Tris, pH 7.2 and 2 μM thapsigargin to block the SERCA pump. All measurements were performed in the presence of 2 mM succinate. The permeabilized cells were loaded with JC-1 (800 nM) and Fura2-FF (0.5 μM), respectively. Fluorescence was monitored in a multi-wavelength excitation dual-wavelength emission fluorimeter. [Ca^2+]out is represented as the excitation ratio (340 nm/380 nm) of Fura2-FF/FA fluorescence and ΔΨm as the ratio of the fluorescence of J-aggregate (570 nm excitation/595 nm emission) and monomer (490 nm excitation/535 nm emission) forms of JC-1. A series of extra-mitochondrial Ca^2+ bolus (20 μM) was added and mitochondrial uncoupler, CCCP (2 jμM), were added at the indicated time points. All of the experiments were performed at 37° C. with constant stirring.
# With the new nitrido-bridged ruthenium compounds C-2 and C-3 prepared, MCU-inhibitory properties of these compounds were evaluated and their activities compared to C-1, the oxo-bridged Ru360 analogue of the conventional art (S. R. Nathan et al., Inorg. Chem. 2017, 56, 3123-3126 and S. R. Nathan et al., J. Vis. Exp. 2017, 56527). The cytotoxicity of the complexes in HEK293 cells was first measured using the colorimetric thiazolyl blue tetrazolium bromide (MTT) assay, as well known in the art. […] To measure the effect of these compounds on MCU activity, permeabilized HEK293T cells were treated with commercially available Ru360, C-1, C-2, or C-3 (5 jμM) 200 seconds prior to the delivery of a 20 μM bolus of Ca^2+ in the presence of 2 mM succinate as an energy source and the sarco/endoplasmic reticulum Ca^2+-ATPase (SERCA) pump blocker thapsigargin to prevent ER Ca^2+ uptake (S. Shanmughapriya et al., Sci. Signal. 2015, 8, ra23).
# FIGS. 2A-2C are graphs showing changes in mitochondrial membrane potential (ΔΨm, JC-1, top panel) and extramitochondrial Ca^2+([Ca^2+]out) clearance (Fura-2 FF, bottom panel) in digitonin permeabilized HEK293T cells in response to 20 μM of Ca^2+ after treatment with 5 μM of C-1 (FIG. 2A), C-2 (FIG. 2B), and C-3 (FIG. 2C). The transient drop in ΔΨm in control cells upon Ca^2+ addition indicates accumulation of Ca^2+ in the mitochondrial matrix. FIG. 2D is a graph quantifying the rate of [Ca^2+] uptake as a function of decrease in [Ca^2+]out after a […] Ca^2+ pulse. […] Additionally, ΔΨm was monitored using 5,5′,6,6′-tetrachloro-1,1′,3,3′-tetraethylbenzimidazolylcarbocyanine iodide (JC-1) dye (M. Reen et al., Biochemistry 1991, 30, 4480-4486).
# Having identified (C-2 as a cell-permeable MCU inhibitor, a dose-response analysis was performed to determine the potency of C-2 towards mCa^2+ uptake inhibition of C-2 in a permeabilized cell system. Permeabilized IHEK293T cells were treated with C-2 (1 nM to 1 μM). A 20 μM Ca^2+ bolus was added after baseline recording, and the extra-mitochondrial calcium cleared was used as an indicator for MCU-mediated mCa^2+ uptake using Fura-2FF. The results are shown in FIGS. 4A-4C. FIG. 4A includes representative traces of [Ca^2+]out clearance in permeabilized HEK293T cells challenged with a range of C-2 concentrations (1, 2, 3, 5, and 10 nM). FIG. 4B is a graph comparing MCU-inhibitory effect by Ru360 (30 nM) and C-2 (2 and 10 nM) at lower concentrations. FIG. 4C is a graph showing calculation of dose-dependent IC50 inhibition by C-2 and Ru360. Data represent mean±SEM (n=3-6), n.s.=not significant. […] Furthermore, complete inhibition of mCa^2+ uptake was observed when cells were dosed with 10 nM C-2 while 500 nM of Ru360 was required for the same response (FIGS. 4A and 4B).
Compound,IC50 (HEK293 cells) [nM],MCU mediated mCa2+ uptake [1],transient ΔΨm loss (JC-1) [1],toxicity to human cells (HEK293 cells),IC50 [1] [nM]
[Ru2(μ-N)(en)4Cl2]Cl3 [C-3],226000 ± 19000,significant reduction in MCU mediated mCa^2+ uptake,no transient A m loss,,
"N.N.N.N.N.N.N.N.[Cl-].[Cl-].[N-3].[Ru+4].[Ru+4] [C-2, [Ru2(μ-N)(NH3)8Cl2]Cl3]",,significant reduction in MCU mediated mCa^2+ uptake,no transient A m loss,low toxicity to human cells,2.6
"N.N.N.N.N.N.N.N.O=C[O-].O=C[O-].[O-2].[Ru+3].[Ru+4] [Ru360, reference compound]",,significant reduction in MCU mediated mCa^2+ uptake,no transient A m loss,,30
